{"source": "EPA's ToxValDB 9.5 (doi:10.2903/j.efsa.2018.5288)", "key": {"[1]": {"test_system": "Rattus norvegicus"}, "[2]": {"test_system": "Colinus virginianus"}, "[3]": {"test_system": "Apis mellifera", "details": "acute, mortality"}, "[4]": {"test_system": "Lepomis macrochirus", "details": "acute; duration: 96 hours; mortality"}, "[5]": {"test_system": "Mus musculus", "details": "chronic; duration: 18 months; oral; diet; neurology"}, "[6]": {"test_system": "Anas platyrhynchos", "details": "short-term; mortality"}}}
{"smiles": "CCCCC(CC)COC(=O)[C@@H](C)Oc1ccc(Cl)cc1Cl", "note": "(stereo not given in full) [Dichlorprop-P-2-ethylhexyl]", "values": [{"measurement": "LD50", "setting": "[1]; acute, mortality", "value": 824, "unit": "mg/kg-day"}, {"measurement": "NOAEL", "setting": "[1]; developmental, development", "value": 80, "unit": "mg/kg-day"}, {"measurement": "NOAEL", "setting": "[1]; reproduction developmental, body weight", "value": 20, "unit": "mg/kg-day"}, {"measurement": "LD50", "setting": "[2]; acute, oral, mortality", "value": 1010, "unit": "mg/kg-day"}, {"measurement": "NOEL", "setting": "[2]; reproduction developmental", "value": 101, "unit": "mg/kg-day"}, {"measurement": "LD50", "setting": "[3]; dermal", "value": "> 180", "unit": "µg/piece"}, {"measurement": "LD50", "setting": "[3]; oral, unspecified", "value": "> 178", "unit": "µg/piece"}, {"measurement": "LC50", "setting": "[4]", "value": 7.9, "unit": "µg/mL"}, {"measurement": "NOAEL", "setting": "[5]", "value": 6, "unit": "mg/kg-day"}, {"measurement": "LD50", "setting": "[6]", "value": "> 928", "unit": "mg/kg-day"}]}
